Measurements as given in patent EP0134242B1, “[…] ANTIGEN” (NEW YORK UNIVERSITY, priority 1983, dated 1984).

Tests used:
[1] = tested on: monoclonal antibody (2G3); test: Inhibition by 12-MER of the binding of P. knowlesi CS protein to monoclonal antibody 2G3 (two-site assay); design: species or system mouse
Protocol: To distinguish between these possibilities, an assay was conducted to determine the ability of the 12-MER to inhibit the interaction between the CS proteins of P.knowlesi and the monoclonal antibody 2G3. The inhibition assay was performed as follows: Wells of microtiter plates were coated with the monoclonal antibody 2G3 washed with Tween-20, saturated with BSA as described supra. In one series of tubes, the 12-MER was serially diluted in PBS-BSA-Tween 20. In a second series of tubes, an extract of P.knowlesi sporozoites (prepared as described by Cochrane, et al, supra) was serially diluted in PBS-BSA-Tween 20. Aliquots of each dilution of sporozoites were mixed with equal volumes of all dilutions of 12-MER. 30 µl of these mixtures were then added to the bottom of the 2G3-coated wells. As positive and negative controls, 30 µl aliquots of sporozoite dilutions mixed with PBS-BSA-Tween 20 were added to other wells which had been precoated with 2G3 or with a non-relevant monoclonal antibody. After overnight incubation in the refrigerator, the wells were washed and 50 µl (10 ug) of ¹²⁵I-labeled 2G3 diluted in PBS-BSA-Tween 20 were added. Following an additional incubation at room temperature for 1 hour, the wells were washed and counted in a gamma counter. The results are shown in Table V. The 12-MER inhibited, in a dose-dependent fashion, the interaction of the P.knowlesi CS protein with 2G3.

[2] = tested on: 2G3, 5H8, and 8B8 antibodies; test: Inhibition immunoassays with peptide analogs, results in words for several antibodies together; format: binding, mouse; conditions: for inhibition of the reaction of antibodies 2G3, 5H8 and 8B8 with the antigen (in words): P. knowlesi CS protein as antigen
Protocol: (§1) Competitive inhibition of the antigen-antibody reaction by the thus synthesized peptides was measured by the following radioimmunoassay. P.knowlesi sporozoite CS protein was used as the antigen. • a) Preparation of antigen: 3,000 purified P. knowlesi sporozoites (Vanderberg et al., Military Medicine 134:1183, 1969) in 50 µl of phosphate buffered saline (PBS) containing protease inhibitors, were delivered to the bottom of polystyrene (Falcon 3911 plate, B-D and Co., Oxnard, Calif.) microtiter plates, which were sealed with parafilm and frozen at -70°C for at least ten minutes. The plates were then allowed to defrost slowly at room temperature. This procedure was repeated six times. Then the plates were incubated at 4°C overnight, and at 56°C for five minutes. The P. knowlesi extract was then removed from the wells and these were washed three times with PBS containing 1% bovine serum albumin (BSA) and 0.1% NaN₃. The wells were then filled with PBS-BSA-NaN₃ and incubated for a few hours at room temperature. • b) Preparation of peptides and two-site radio immunoassay to determine the inhibitory activity of the analogs; • (1) All synthetic peptides were dissolved in PBS at a concentration of 10 mM and subsequently diluted serially in PBS-1% BSA/0.1%NaN₃. Twenty-five µl of serial dilutions of each peptide were added to the wells coated with antigen. Control wells received only the diluent. Then, 25 µl of the ¹²⁵I-labelled monoclonal antibody (about 5-10ng, 10⁵cpm) were added to the wells. The microtiter plates were incubated at 4°C for 18 hours, washed 5 times with PBS-BSA-NaN₃ and then the wells were counted for well-bound antibody.
The series of shorter analogs and one peptide overlapping two epitopes (7-6) shown in Table VII was used to analyze the specificity of the 2G3, 5H8, and 8B8 antibodies using the inhibition immunoassays described in Examples 10 and 11. […] On a molar basis, their activities were similar, although in some instances the larger peptides appeared to be slightly better inhibitors. […]

[3] = tested on: monoclonal antibody 2G3; test: Two-site immunoradiometric assay with monoclonal antibody 2G3 and synthetic peptides; format: binding, mouse
Protocol: Wells of microtiter plates (Falcon 3911) were incubated overnight at 4°C with 50 µl of a 10 µg/ml solution in PBS of the monoclonal 2G3 anti-CS protein of P.knowlesi. The wells were washed with PBS and then incubated for 2 hours at room temperature, with PBS-Tween 20 (0.05% (w/v), and then for 3 additional hours with PBS-BSA (1% (w/v). The synthetic peptides were diluted serially in PBS-BSA-Tween 20, and 30 µl aliquots of the dilutions were delivered to the bottom of individual wells. The plates were incubated overnight in the refrigerator, washed with PBS-BSA-Tween 20, and incubated with 5.0 µl (10 ng) of ¹²⁵I-labeled monoclonal antibody 2G3 diluted in PBS-BSA-Tween 20 (about 100,000 cpm). Controls consisted of plates coated with a non-relevant monoclonal antibody of the same isotype as 2G3. Specific counts were found only in wells incubated with the 24-MER and they were proportional to the dose of peptide added to the well.

[4] = tested on: antibody 8E11; test: Inhibition by synthetic peptides of binding of radiolabelled monoclonal antibody to CS protein (radioimmunoassay); design: species or system mouse; conditions: at a concentration of 10⁻²M
Protocol: as §1, with “The wells were then filled with PBS-BSA-NaN₃ and incubated for a few hours at room temperature. • b) Preparation of peptides and two-site radio immunoassay to determine the inhibitory activity of the analogs; • (1) All synthetic peptides were dissolved in PBS at a concentration of 10 mM and subsequently diluted serially in PBS-1% BSA/0.1%NaN₃. Twenty-five µl of serial dilutions of each peptide were added to the wells coated with antigen. Control wells received only the diluent. Then, 25 µl of the ¹²⁵I-labelled monoclonal antibody (about 5-10ng, 10⁵cpm) were added to the wells.” left out, “antibody. […]” for “antibody.”

Substance | Amount of 2G3 bound (cpm) in the presence of the 12-MER inhibitor ([1]; 12-MER 0.08 mg/ml, P. knowlesi extract 10³ sporozoites/ml (no inhibitor: 156)) | Amount of 2G3 bound (cpm) in the presence of the 12-MER inhibitor ([1]; 12-MER 0.08 mg/ml, P. knowlesi extract 10⁴ sporozoites/ml (no inhibitor: 1353)) | Amount of 2G3 bound (cpm) in the presence of the 12-MER inhibitor ([1]; 12-MER 0.08 mg/ml, P. knowlesi extract 10⁵ sporozoites/ml (no inhibitor: 4390)) | Amount of 2G3 bound (cpm) in the presence of the 12-MER inhibitor ([1]; 12-MER 0.08 mg/ml, P. knowlesi extract 10⁶ sporozoites/ml (no inhibitor: 5582)) | Amount of 2G3 bound (cpm) in the presence of the 12-MER inhibitor ([1]; 12-MER 0.6 mg/ml, P. knowlesi extract 10³ sporozoites/ml (no inhibitor: 156)) | Amount of 2G3 bound (cpm) in the presence of the 12-MER inhibitor ([1]; 12-MER 0.6 mg/ml, P. knowlesi extract 10⁴ sporozoites/ml (no inhibitor: 1353)) | Amount of 2G3 bound (cpm) in the presence of the 12-MER inhibitor ([1]; 12-MER 0.6 mg/ml, P. knowlesi extract 10⁵ sporozoites/ml (no inhibitor: 4390)) | Amount of 2G3 bound (cpm) in the presence of the 12-MER inhibitor ([1]; 12-MER 0.6 mg/ml, P. knowlesi extract 10⁶ sporozoites/ml (no inhibitor: 5582)) | Amount of 2G3 bound (cpm) in the presence of the 12-MER inhibitor ([1]; 12-MER 5.0 mg/ml, P. knowlesi extract 10³ sporozoites/ml (no inhibitor: 156)) | Amount of 2G3 bound (cpm) in the presence of the 12-MER inhibitor ([1]; 12-MER 5.0 mg/ml, P. knowlesi extract 10⁴ sporozoites/ml (no inhibitor: 1353)) | Amount of 2G3 bound (cpm) in the presence of the 12-MER inhibitor ([1]; 12-MER 5.0 mg/ml, P. knowlesi extract 10⁵ sporozoites/ml (no inhibitor: 4390)) | Amount of 2G3 bound (cpm) in the presence of the 12-MER inhibitor ([1]; 12-MER 5.0 mg/ml, P. knowlesi extract 10⁶ sporozoites/ml (no inhibitor: 5582)) | inhibition of the reaction of antibodies 2G3, 5H8 and 8B8 with the antigen (in words) [2] | Amount of radiolabeled 2G3 (cpm) bound in wells ([3]; peptide 5. µg/ml incubated with the solid-phase antibody 2G3) | Amount of radiolabeled 2G3 (cpm) bound in wells ([3]; peptide 50. µg/ml incubated with the solid-phase antibody 2G3) | Amount of radiolabeled 2G3 (cpm) bound in wells ([3]; peptide 500. µg/ml incubated with the solid-phase antibody 2G3) | Amount of radiolabeled 2G3 (cpm) bound in wells ([3]; peptide .5 µg/ml incubated with the solid-phase antibody 2G3) | inhibitory effect on binding of radiolabelled 8E11 to the CS protein [4] | activity in the inhibition assays of the foregoing Examples (in words) ([2]; assayed as in the foregoing Examples (antibodies 2G3, 5H8, 8B8, 8E11))
H₂N-GlnAlaGlnGlyAspGlyAla-AsnAlaGlyGlnPro-COOH (H-QAQGDGANAGQP-OH) [Peptide 12-MER] | 72 cpm | 102 cpm | 1221 cpm | 3893 cpm | 0 cpm | 70 cpm | 781 cpm | 3018 cpm | 37 cpm | 3 cpm | 361 cpm | 1099 cpm | strongly inhibitory | 40 cpm | 103 cpm | 157 cpm | 0 cpm | no appreciable inhibitory effect | –
Asp₅-Gly-Ala-Asn-Ala-Gly-Gln-Pro₁₂ [5 - 12] | – | – | – | – | – | – | – | – | – | – | – | – | strongly inhibitory | – | – | – | – | – | –
Ala₇-Asn₈-Ala₉-Gly₁₀-Gln₁₁-Pro₁₂-Gln₁-Ala₂-Gln₃-Gly₄-Asp₅-Gly₆ | – | – | – | – | – | – | – | – | – | – | – | – | – | – | – | – | – | – | inactive
